# Experiments:
# [1] = Test Example 1: Pharmacokinetic study in rats (intravenous); type: in vivo; details: rat, SD rats, 5 mg/kg intravenous injection, plasma; for MRT last: read-out: MRT(0-t)
# Experimental: A proper amount of each of SMTP-7 and compound 1 was weighed out, and 2% (final volume) DMSO and 98% (final volume) normal saline were added. After they were well mixed by vortexing and ultrasonication, a 1 mg/mL clear solution was obtained for later use.
# SD Rats, at the Age of 6-8 Weeks, Weighing about 180-220 g.
# About 0.20 mL of blood was collected for each sample via the jugular vein or other suitable is routes, and sodium heparin was used as the anticoagulant. The blood was placed on ice immediately after the collection. The collection was performed at a total of 10 time points: before administration, and 5 min, 0.25 h, 0.5 h, 1 h, 2 h, 4 h, 6 h, 10 h and 24 h after administration. The collected blood samples were placed in heparin anticoagulant blood collection tubes and centrifuged at 6800 g at 2-8° C. for 6 min to separate plasma. The plasma samples were stored in a freezer at −80° C. before analysis.
# The plasma concentration of each test compound was determined. The analysis of quality control samples was performed while the samples were analyzed, and more than 66.7% of the quality control samples were required to have an accuracy of 80-120%.
# When plasma drug concentration-time curves were plotted, BLQ was recorded as 0. When the pharmacokinetic parameters were calculated, the concentration before administration was calculated as 0; BLQ before Cmax (including “No peak”) was calculated as 0; and BLQ that occurs after Cmax (including “No peak”) was excluded from the calculation. The following pharmacokinetic parameters were calculated from the plasma concentration data of different time points using the non-compartmental analysis method of Phoenix WinNonlin 7.0 software: AUC(0−t), AUC(0−∞), T1/2, MRT, Cmax, Tmax, etc.
# [2] = Test Example 2: Pharmacokinetic study in rats (intravenous); type: in vivo, SD rats; details: 5 mg/kg intravenous administration
# Experimental: After they were well mixed by vortexing and ultrasonication, a 1 mg/mL clear solution was obtained for later use.
# SD Rats, at the Age of 6-8 Weeks, Weighing about 180-240 g.
# The pharmacokinetic parameters such as AUC(0−t), AUC(0−∞), T1/2, MRT, Cmax and Tmax were measured in rats according to the method of Test Example 1.
SMILES,AUC(0-t) [1] [ng·h/mL],Cmax [1] [ng/mL],Tmax [1] [min],half-life [1] [h],MRT last [1] [h],AUC (comparison in words) [2],T1/2 (comparison in words) [2]
"[2H]C([2H])(CC[C@@H](C(=O)O)N1Cc2c(cc(O)c3c2O[C@@](C)(CC/C=C(\C)CCC=C(C)C)[C@@H](O)C3)C1=O)N1Cc2c(cc(O)c3c2O[C@@](C)(CC/C=C(\C)CCC=C(C)C)[C@@H](O)C3)C1=O [Compound 1, δ-Deutero SMTP-7]",11300,19100,4.8,8.94 ± 0.61,3.06 ± 0.25,–,–
"[2H][C@](CCCN1Cc2c(cc(O)c3c2O[C@@](C)(CC/C=C(\C)CCC=C(C)C)[C@@H](O)C3)C1=O)(C(=O)O)N1Cc2c(cc(O)c3c2O[C@@](C)(CC/C=C(\C)CCC=C(C)C)[C@@H](O)C3)C1=O [Compound 2, α-Deutero SMTP-7]",–,–,–,–,–,did not greatly differ,did not greatly differ
"[2H]C([2H])(CCN1Cc2c(cc(O)c3c2O[C@@](C)(CC/C=C(\C)CCC=C(C)C)[C@@H](O)C3)C1=O)[C@@H](C(=O)O)N1Cc2c(cc(O)c3c2O[C@@](C)(CC/C=C(\C)CCC=C(C)C)[C@@H](O)C3)C1=O [Compound 3, β-Deutero SMTP-7]",–,–,–,–,–,did not greatly differ,did not greatly differ

# Next, values leading:
AUC(0-t) [1] [ng·h/mL],Cmax [1] [ng/mL],Tmax [1] [min],half-life [1] [h],MRT last [1] [h],AUC (comparison in words) [2],T1/2 (comparison in words) [2],SMILES
–,–,–,–,–,lower AUC than SMTP-7,lower T1/2,"[2H]C([2H])(C[C@@H](C(=O)O)N1Cc2c(cc(O)c3c2O[C@@](C)(CC/C=C(\C)CCC=C(C)C)[C@@H](O)C3)C1=O)CN1Cc2c(cc(O)c3c2O[C@@](C)(CC/C=C(\C)CCC=C(C)C)[C@@H](O)C3)C1=O [Compound 4, γ-Deutero SMTP-7]"
8010,26300,4.8,6.69 ± 0.178,0.465 ± 0.08,did not greatly differ,did not greatly differ,"CC(C)=CCC/C(C)=C/CC[C@]1(C)Oc2c(c(O)cc3c2CN(CCC[C@@H](C(=O)O)N2Cc4c(cc(O)c5c4O[C@@](C)(CC/C=C(\C)CCC=C(C)C)[C@@H](O)C5)C2=O)C3=O)C[C@@H]1O [SMTP-7, Stachybotrys microspore triprenyl phenol-7]"

# — US20240190896A1, “SMTP-7 DERIVATIVE AND USE THEREOF” (Shanghai Senhui Medicine Co., Ltd., priority 2021, published 2024)
